Common to all, as to format: biochemical
The target of experiment [1] is T1, human JAK1 (a.a. 837-1142) (Homo sapiens, UniProt P23458).
T1 construct: human JAK1 (a.a. 837-1142); His tag (N); made in house; host or cells: insect cells (baculovirus)
Put plainly: In vitro JAK kinase assay (HTRF, phosphorylation of a biotinylated peptide), JAK1. The conditions noted are these: read-out: JAK1 IC50. Summed up: (§1)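 Kinase activity was measured as phosphorylation of a biotinylated peptide, with ATP at 90 μM for JAK1, 30 μM for JAK2 and 3 μM for JAK3. Reactions ran 1 hr at room temperature, were stopped with EDTA plus SA-APC and Eu-Py20, and were read by HTRF after 40 minutes of antibody binding.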

Experiment [2] concerns the target T2, Recombinant Human Anaplastic Lymphoma Kinase (Homo sapiens, UniProt Q9UM73).
T2 construct: purchased Invitrogen, Carlsbad, Calif
As to the kind of experiment: ALK HTRF kinase assay. Summed up:
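Readout was HTRF between a Eu-W1024 anti-phosphotyrosine antibody and streptavidin-APC bound to biotinylated peptide phosphorylated by recombinant human ALK. IC50 values came from a four-parameter logistic fit.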
In general terms: Time-resolved FRET reads energy transfer from a long-lived donor to a nearby acceptor.

The next experiment concerns the target TYK2 (Homo sapiens, UniProt P29597). As to the kind of experiment: TYK2 kinase inhibition (Table A1).
The target in experiment [3] is T3, human JAK3 (a.a. 781-1124) (Homo sapiens, UniProt P52333).
T3 construct: JAK3 (a.a. 781-1124); His tag (N); made in house; host or cells: insect cells (baculovirus)
T3 sequence (P52333 781-1124): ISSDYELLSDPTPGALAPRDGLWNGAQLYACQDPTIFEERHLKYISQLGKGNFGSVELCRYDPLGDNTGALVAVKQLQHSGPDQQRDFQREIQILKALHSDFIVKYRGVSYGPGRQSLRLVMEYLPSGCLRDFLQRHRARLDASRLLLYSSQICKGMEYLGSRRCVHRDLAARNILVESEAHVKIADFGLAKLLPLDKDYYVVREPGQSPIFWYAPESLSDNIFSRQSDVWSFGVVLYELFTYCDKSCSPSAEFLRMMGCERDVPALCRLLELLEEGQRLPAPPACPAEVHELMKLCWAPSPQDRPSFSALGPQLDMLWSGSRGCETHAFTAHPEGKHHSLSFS
As to the kind of experiment: In vitro JAK kinase assay (HTRF, phosphorylation of a biotinylated peptide), JAK3. Summed up: as §1

The target in experiment [4] is T4, human JAK2 (a.a. 828-1132) (Homo sapiens, UniProt O60674).
T4 construct: JAK2 (a.a. 828-1132); His tag (N); made in house; host or cells: insect cells (baculovirus)
T4 sequence (O60674 828-1132): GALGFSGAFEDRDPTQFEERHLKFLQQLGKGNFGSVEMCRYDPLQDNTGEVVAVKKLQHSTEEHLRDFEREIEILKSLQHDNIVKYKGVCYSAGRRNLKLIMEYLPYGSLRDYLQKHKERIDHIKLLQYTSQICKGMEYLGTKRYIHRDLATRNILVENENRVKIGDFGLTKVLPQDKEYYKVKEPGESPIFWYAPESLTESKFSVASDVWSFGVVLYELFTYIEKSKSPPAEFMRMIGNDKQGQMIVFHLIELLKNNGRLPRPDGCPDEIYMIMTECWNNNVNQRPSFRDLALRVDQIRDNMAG
Put plainly: In vitro JAK kinase assay (HTRF, phosphorylation of a biotinylated peptide), JAK2. Summed up:
as §1

The mark [5] stands for this setting: percentage inhibition of the example compound at a concentration of 500 nM or 1 mM (not specified which).
[6] abbreviates: method AA1 (90 μM ATP) or AA2 (1000 μM ATP), not stated per value.
Where [7] appears, read: compound at 500 nM or 1 mM, 90 μM ATP.
[8] abbreviates: method AA1 (3 μM ATP) or AA2 (1000 μM ATP), not stated per value.
[9] abbreviates: method AA1 (30 μM ATP) or AA2 (1000 μM ATP), not stated per value.
Where [10] appears, read: compound at a concentration of 500 nM or 1 mM (not specified), cells shown as percentage.

SMILES strings stand for the structures. Structures can show the parent of a compound that is named as a salt. Where two headings read alike, the source gives them in different places.

T2 sequence (Q9UM73 19-1620): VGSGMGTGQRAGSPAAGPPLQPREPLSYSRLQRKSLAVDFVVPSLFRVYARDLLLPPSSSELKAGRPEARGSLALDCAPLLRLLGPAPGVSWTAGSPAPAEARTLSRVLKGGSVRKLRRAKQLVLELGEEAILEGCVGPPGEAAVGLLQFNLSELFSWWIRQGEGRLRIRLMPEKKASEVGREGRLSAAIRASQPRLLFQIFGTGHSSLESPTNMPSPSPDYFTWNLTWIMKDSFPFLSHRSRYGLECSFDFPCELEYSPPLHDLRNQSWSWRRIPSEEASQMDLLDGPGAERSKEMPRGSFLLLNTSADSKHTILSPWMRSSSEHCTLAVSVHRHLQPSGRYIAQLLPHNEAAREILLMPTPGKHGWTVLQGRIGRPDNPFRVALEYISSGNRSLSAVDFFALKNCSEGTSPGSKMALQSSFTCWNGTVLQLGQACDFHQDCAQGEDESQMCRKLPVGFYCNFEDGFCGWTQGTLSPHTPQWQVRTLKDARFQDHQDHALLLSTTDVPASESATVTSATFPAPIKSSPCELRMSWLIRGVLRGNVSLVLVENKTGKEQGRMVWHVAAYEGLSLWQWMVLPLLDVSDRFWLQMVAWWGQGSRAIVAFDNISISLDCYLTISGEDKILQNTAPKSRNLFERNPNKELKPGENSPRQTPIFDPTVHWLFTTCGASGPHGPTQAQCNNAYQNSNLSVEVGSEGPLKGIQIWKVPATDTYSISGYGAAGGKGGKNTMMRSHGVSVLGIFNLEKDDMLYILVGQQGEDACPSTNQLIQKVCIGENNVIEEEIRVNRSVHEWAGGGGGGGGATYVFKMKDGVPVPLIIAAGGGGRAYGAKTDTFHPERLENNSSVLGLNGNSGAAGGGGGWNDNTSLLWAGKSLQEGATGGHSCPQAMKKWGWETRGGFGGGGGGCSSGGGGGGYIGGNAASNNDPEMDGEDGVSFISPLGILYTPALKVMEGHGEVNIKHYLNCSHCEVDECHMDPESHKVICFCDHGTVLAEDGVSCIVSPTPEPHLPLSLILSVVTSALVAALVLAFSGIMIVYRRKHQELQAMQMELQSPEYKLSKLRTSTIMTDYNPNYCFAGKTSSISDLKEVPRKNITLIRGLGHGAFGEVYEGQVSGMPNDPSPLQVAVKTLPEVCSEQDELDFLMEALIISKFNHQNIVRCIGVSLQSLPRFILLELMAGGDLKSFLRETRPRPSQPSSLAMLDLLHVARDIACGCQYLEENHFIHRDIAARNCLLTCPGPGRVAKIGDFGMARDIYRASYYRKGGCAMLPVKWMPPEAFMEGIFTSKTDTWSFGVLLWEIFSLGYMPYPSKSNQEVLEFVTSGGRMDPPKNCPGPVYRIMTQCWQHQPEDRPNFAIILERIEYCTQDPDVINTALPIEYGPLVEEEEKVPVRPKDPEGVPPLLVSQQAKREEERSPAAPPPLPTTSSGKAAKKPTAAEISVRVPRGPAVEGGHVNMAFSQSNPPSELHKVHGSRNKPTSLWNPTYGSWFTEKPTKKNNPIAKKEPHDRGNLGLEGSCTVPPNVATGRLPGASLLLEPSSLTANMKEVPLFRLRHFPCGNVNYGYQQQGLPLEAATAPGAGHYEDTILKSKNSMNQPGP
T1 sequence (P23458 849-1154): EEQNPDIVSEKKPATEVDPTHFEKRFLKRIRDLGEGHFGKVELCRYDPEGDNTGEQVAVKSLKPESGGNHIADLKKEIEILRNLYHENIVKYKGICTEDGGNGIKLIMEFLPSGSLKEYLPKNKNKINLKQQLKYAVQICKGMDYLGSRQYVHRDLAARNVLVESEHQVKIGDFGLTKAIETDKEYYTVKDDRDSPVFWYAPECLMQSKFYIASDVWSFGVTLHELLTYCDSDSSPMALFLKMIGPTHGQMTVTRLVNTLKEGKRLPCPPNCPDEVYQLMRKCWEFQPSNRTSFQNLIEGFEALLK
Chain of TYK2 (P29597 whole entry): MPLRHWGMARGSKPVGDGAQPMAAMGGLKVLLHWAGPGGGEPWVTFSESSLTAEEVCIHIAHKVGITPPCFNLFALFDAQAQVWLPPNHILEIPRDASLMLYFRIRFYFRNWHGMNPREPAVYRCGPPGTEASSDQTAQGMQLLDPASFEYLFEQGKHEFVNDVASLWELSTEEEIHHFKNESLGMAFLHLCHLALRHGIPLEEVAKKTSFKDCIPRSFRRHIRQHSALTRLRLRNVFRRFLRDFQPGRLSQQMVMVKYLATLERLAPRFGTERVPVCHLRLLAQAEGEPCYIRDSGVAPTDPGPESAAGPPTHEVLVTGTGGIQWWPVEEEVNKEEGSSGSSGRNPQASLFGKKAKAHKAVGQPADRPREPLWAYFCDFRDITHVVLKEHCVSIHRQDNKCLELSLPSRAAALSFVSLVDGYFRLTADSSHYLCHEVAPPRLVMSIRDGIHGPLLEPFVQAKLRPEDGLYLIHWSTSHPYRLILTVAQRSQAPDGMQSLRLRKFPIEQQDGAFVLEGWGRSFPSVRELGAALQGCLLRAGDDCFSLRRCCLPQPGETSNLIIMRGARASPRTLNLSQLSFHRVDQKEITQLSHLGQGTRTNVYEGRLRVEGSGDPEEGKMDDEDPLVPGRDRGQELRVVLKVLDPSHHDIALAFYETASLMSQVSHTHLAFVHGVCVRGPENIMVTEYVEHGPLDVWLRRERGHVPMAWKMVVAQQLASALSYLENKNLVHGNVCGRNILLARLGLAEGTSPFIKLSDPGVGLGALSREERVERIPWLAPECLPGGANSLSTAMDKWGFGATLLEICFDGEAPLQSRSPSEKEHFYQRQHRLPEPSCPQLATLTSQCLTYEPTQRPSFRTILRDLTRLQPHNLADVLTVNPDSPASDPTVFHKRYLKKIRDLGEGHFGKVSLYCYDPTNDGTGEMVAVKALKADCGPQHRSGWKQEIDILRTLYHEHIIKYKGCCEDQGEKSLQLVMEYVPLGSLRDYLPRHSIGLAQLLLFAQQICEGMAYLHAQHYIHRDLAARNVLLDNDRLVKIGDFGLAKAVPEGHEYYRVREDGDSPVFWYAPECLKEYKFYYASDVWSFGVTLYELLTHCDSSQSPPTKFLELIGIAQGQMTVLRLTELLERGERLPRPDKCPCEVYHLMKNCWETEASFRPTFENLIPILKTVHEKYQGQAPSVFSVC

For the compound `Cc1oncc1S(=O)(=O)N1CCC(CN(C)Cc2ccc3cc2CCc2cncc(c2)Nc2ncc(Cl)c(n2)N3)CC1` [Example B342, 1-[6-Chloro-2,4,8,18,22-pentaazatetracyclo[14.3.1.1(3,7).1(9,13)]docosa-1(20),3(22),4,6,9(21),10,12,16,18-nonaen-12-yl]-N-methyl-N-({1-[(5-methylisoxazol-4-yl)sulfonyl]piperidin-4-yl}methyl)methanamine tris(trifluoroacetate)], the IC50 in experiment [1] (Table B1) was 0.0077 µM; against TYK2 (Table B1), 0.226 µM; in experiment [3] (Table B1), more than 0.4 µM; in experiment [4] (Table B1) it was 0.06 µM. In experiment [2] (setting [5]), the “ALK % of inhibition at a concentration of 500 nM or 1 mM” value (shortened to “ALK % of inhibition”) is 37%.

`CC(C)c1oncc1C(=O)N1CCC(CC(=O)Nc2ccc3cc2CCc2cncc(c2)Nc2ncc(Cl)c(n2)N3)CC1` [Example A218, N-[6-Chloro-2,4,8,18,22-pentaazatetracyclo[14.3.1.1(3,7).1(9,13)]docosa-1(20),3(22),4,6,9(21),10,12,16,18-nonaen-12-yl]-2-{1-[(5-isopropylisoxazol-4-yl)carbonyl]piperidin-4-yl}acetamide bis(trifluoroacetate)]: the IC50 was 0.074 µM in experiment [1] (setting [6]), more than 0.2 µM on TYK2, more than 0.2 µM in experiment [3] (setting [8]) and more than 0.2 µM in experiment [4] (setting [9]). In addition, the “ALK % of inhibition” value in experiment [2] (setting [7]) came to 26%.

With `O=C(CC1CCN(S(=O)(=O)c2ccccc2OC(F)(F)F)CC1)Nc1ccc2cc1CCc1cncc(c1)Nc1ncc(Cl)c(n1)N2` [Example A227, N-[6-Chloro-2,4,8,18,22-pentaazatetracyclo[14.3.1.1(3,7).1(9,13)]docosa-1(20),3(22),4,6,9(21),10,12,16,18-nonaen-12-yl]-2-(1-{[2-(trifluoromethoxy)phenyl]sulfonyl}piperidin-4-yl)acetamide bis(trifluoroacetate)], the IC50 is 0.01 µM in experiment [1] (setting [6]), more than 0.4 µM on TYK2, more than 0.4 µM in experiment [3] (setting [8]) and more than 0.4 µM in experiment [4] (setting [9]). In experiment [2] (setting [7]), the “ALK % of inhibition” value worked out at 22%.

As to `CC(C)(C)OC(=O)N1CC[C@H](NCc2ccc3cc2CCc2cccc(c2)Nc2ncc(Cl)c(n2)N3)C1` [Example B220, tert-Butyl (3S)-3-({[6-chloro-2,4,8,22-tetraazatetracyclo[14.3.1.1(3,7).1(9,13)]docosa-1(20),3(22),4,6,9(21),10,12,16,18-nonaen-12-yl]methyl}amino)pyrrolidine-1-carboxylate bis(trifluoroacetate)], the IC50 in experiment [1] (Table B1) is 0.0074 µM; at TYK2 (Table B1) it was 0.028 µM; in experiment [3] (Table B1), 0.036 µM; in experiment [4] (Table B1), 0.012 µM. In experiment [2] (setting [10]), the “ALK % of inhibition” value is on record as 25%.

Turning to `O=C(Nc1cccc(C(F)(F)F)c1)Nc1ccc2cc1CCc1cccc(c1)Nc1ncc(Cl)c(n1)N2` [Example B112, N-[6-Chloro-2,4,8,22-tetraazatetracyclo[14.3.1.1(3,7).1(9,13)]docosa-1(20), 3(22),4,6,9(21),10,12,16,18-nonaen-12-yl]-N′-[3-(trifluoromethyl)phenyl]urea trifluoroacetate], the IC50 was determined as 0.011 µM in experiment [1] (Table B1), 0.033 µM at TYK2 (Table B1), 0.165 µM in experiment [3] (Table B1) and 0.034 µM in experiment [4] (Table B1). Further, in experiment [2] (setting [10]), the “ALK % of inhibition” value is given as 3.3%.

Turning to `Cc1ccccc1NC(=O)Nc1ccc2cc1CCc1cccc(c1)Nc1ncc(Cl)c(n1)N2` [Example B91, N-[6-Chloro-2,4,8,22-tetraazatetracyclo[14.3.1.1(3,7).1(9,13)]docosa-1(20), 3(22),4,6,9(21),10,12,16,18-nonaen-12-yl]-N′-(2-methylphenyl)urea trifluoroacetate], the IC50 in experiment [1] (Table B1) is 0.0021 µM; in experiment [2] (Table B1, cells without percent sign), more than 1 µM; against TYK2 (Table B1), 0.013 µM; in experiment [3] (Table B1) it was 0.028 µM; in experiment [4] (Table B1) it was 0.0027 µM.

For `O=C(CC1CCN(C(=O)c2ccncc2)CC1)Nc1ccc2cc1CCc1cncc(c1)Nc1ncc(Cl)c(n1)N2` [Example A189, N-[6-Chloro-2,4,8,18,22-pentaazatetracyclo[14.3.1.1(3,7).1(9,13)]docosa-1(20),3(22),4,6,9(21),10,12,16,18-nonaen-12-yl]-2-(1-isonicotinoylpiperidin-4-yl)acetamide tris(trifluoroacetate)], the IC50 in experiment [1] (setting [6]) was 0.116 µM; against TYK2, more than 0.2 µM; in experiment [3] (setting [8]), more than 0.2 µM; in experiment [4] (setting [9]), more than 0.2 µM. The “ALK % of inhibition” value in experiment [2] (setting [7]) amounted to 21%.

Regarding `O=C(Nc1nccs1)c1cc2cc(c1)OCCSc1cccc(c1)Nc1nc(ncc1Cl)N2` [Example D54, 6-Chloro-N-1,3-thiazol-2-yl-17-oxa-14-thia-2,4,8,24-tetraazatetracyclo[16.3.1.1(3,7).1(9,13)]tetracosa-1(22),3(24),4,6,9(23),10,12,18,20-nonaene-20-carboxamide trifluoroacetate], the IC50 in experiment [1] (Table D1) is 0.018 µM; in experiment [2] (Table D1, 90 μM ATP), 1.22 µM; on TYK2 (Table D1), 0.027 µM; in experiment [3] (Table D1), 0.132 µM; in experiment [4] (Table D1), 0.015 µM.

For `Cn1ccc(S(=O)(=O)NCCNC(=O)Nc2ccc3cc2CCc2cccc(c2)Nc2ncc(Cl)c(n2)N3)n1` [Example B332, N-{2-[({[6-chloro-2,4,8,22-tetraazatetracyclo[14.3.1.1(3,7).1(9,13)]docosa-1(20),3(22),4,6,9(21),10,12,16,18-nonaen-12-yl]amino}carbonyl)amino]ethyl}-1-methyl-1H-pyrazole-3-sulfonamide trifluoroacetate], the IC50 in experiment [1] (Table B1) came out at 0.003 µM; on TYK2 (Table B1), 0.0082 µM; in experiment [3] (Table B1), 0.026 µM; in experiment [4] (Table B1) it was 0.0034 µM. Further, the “ALK % of inhibition” value in experiment [2] (setting [5]) worked out at 23%.

With `N#Cc1ccccc1N1CCN(C(=O)Nc2ccc3cc2CCc2cncc(c2)Nc2ncc(Cl)c(n2)N3)CC1` [Example B300, N-[6-Chloro-2,4,8,18,22-pentaazatetracyclo[14.3.1.1(3,7).1(9,13)]docosa-1(20),3(22),4,6,9(21),10,12,16,18-nonaen-12-yl]-4-(2-cyanophenyl)piperazine-1-carboxamide tris(trifluoroacetate)], the IC50 in experiment [1] (Table B1) was 0.016 µM; on TYK2 (Table B1) it was 0.027 µM; in experiment [3] (Table B1), more than 0.4 µM; in experiment [4] (Table B1), 0.16 µM. The “ALK % of inhibition” value in experiment [2] (setting [10]) came out at 77%.

For `N#CC1(c2ccccc2)CCN(C(=O)Nc2ccc3cc2CCc2cncc(c2)Nc2ncc(Cl)c(n2)N3)CC1` [Example B322, N-[6-Chloro-2,4,8,18,22-pentaazatetracyclo[14.3.1.1(3,7).1(9,13)]docosa-1(20),3(22),4,6,9(21),10,12,16,18-nonaen-12-yl]-4-cyano-4-phenylpiperidine-1-carboxamide bis(trifluoroacetate)], the IC50 in experiment [1] (Table B1) is 0.032 µM; against TYK2 (Table B1), 0.16 µM; in experiment [3] (Table B1) it was more than 0.4 µM; in experiment [4] (Table B1), 0.313 µM. For the same compound, the “ALK % of inhibition” value in experiment [2] (setting [5]) came out at 74%.

Consider `CS(=O)(=O)N1CCC(CC(=O)Nc2ccc3cc2CCc2cncc(c2)Nc2ncc(Cl)c(n2)N3)C1` (stereo not drawn) [Example A91, N-[6-Chloro-2,4,8,18,22-pentaazatetracyclo[14.3.1.1(3,7).1(9,13)]docosa-1(20),3(22),4,6,9(21),10,12,16,18-nonaen-12-yl]-2-[1-(methylsulfonyl)pyrrolidin-3-yl]acetamide bis(trifluoroacetate)], for which the IC50 was 0.0037 µM in experiment [1] (setting [6]), 0.014 µM at TYK2, 0.044 µM in experiment [3] (setting [8]) and 0.0059 µM in experiment [4] (setting [9]). The “ALK % of inhibition” value in experiment [2] (setting [7]) is on record as 29%.

As a reminder, the IC50 is the concentration needed to halve the response being measured.

Values taken from US8871753B2, “Macrocyclic compounds and their use as kinase inhibitors” (Incyte Corporation, priority 2008, dated 2014).
